Data reported in patent EP1105728B1, “MODULATING MULTIPLE LINEAGE KINASE PROTEINS” (CEPHALON, INC., priority 1998, dated 2000).
Where two headings read alike, the source gives them in different places. Starred links: 1 amine or outer side, 2 acyl side, 3 side chain; linkers in the order of their positions; H or OH if unused. Positions of bridges follow the written chain, without caps; N, C: chain ends. Non-standard residues stand in square brackets, D forms with d. Residues, ends and D or L forms follow the SMILES beside them. Chains are numbered I, II in the order given. Actinocin(9to1) = Cc1c2oc3c(C)ccc(C(=O)[*:1])c3nc-2c(C(=O)[*:2])c(N)c1=O; NMeV = CN[C@H](C(=O)O)C(C)C; Sar = CNCC(=O)O

How the values were obtained:
[1] = tested on: TNF-α; test: Induction of TNF-α by LPS in THP-1 cells (ELISA); type: cell-based; conditions: for TNF-α in the medium: inhibitor 30 min prior to LPS, medium collected 3 hr after LPS; for IC50: Homo sapiens, THP-1, LPS 2 µg/ml, serum-free medium, read-out: THP-1 Cells TNF-α IC50
Description: THP-1 cells were grown in RPMI 1640 medium supplemented with 10% fetal bovine serum. LPS (E.coli serotype 0111.B4, TCA extracted) was purchased from Sigma and dissolved in PBS. ELISA kits for assaying IL-1 and TNF-α were purchased from Boerhinger-Mannheim and assays on THP-1 culture medium were performed as directed by the manufacturer. Standard curves according to directions were obtained with each assay.
Experiments were performed in 12 well culture plates with either 1 or 2 ml of THP-1 cells at 4 X 10^5 cells/ml. IL-1 and TNF-α were induced by the addition of LPS to the culture medium and the medium collected at various times thereafter for cytokine assay. Cells were removed by centrifugation and the supernatants frozen at -70°C until assay. To minimize costs experiments were performed in duplicate cultures and the duplicate supernatants were pooled after centrifugation. Each pooled supernatant was assayed in duplicate. Stock solutions of indolo- and fused pyrrolocarbazoles in 100% DMSO were diluted to the desired concentrations in either medium containing 10% fetal bovine serum or in medium containing 0.5 mg/ml BSA. Unless otherwise stated, compounds were added to the THP-1 cells 1 hr prior to the addition of LPS.

[2] = tested on: MKK4; test: MPTP model: phosphorylated MKK4 in the substantia nigra (immunoblot, ELISA); type: in vivo, mice; conditions: pretreatment; Compound III-3 1 mg/kg (Fig. 22c)
Description: MPTP was administered at a dose (40 mg/kg) that produces loss of striatal dopaminergic terminals and cell bodies in the substantia nigra. Tyrosine hydroxylase was used as a marker for dopamenergic nerve terminals in the substantia nigra. […] Since Compound III-3 is a known inhibitor of MLK3, activation of a downstream substrate of MLK3 was measured in MPTP- treated mice. Levels of phosphorylated MKK4 were measured using a phospho-MKK4 specific antibody (New England Biolabs, Beverly, MA) that recognizes the monophosphorylated form of MKK4 by either immunoblot (Fig. 22b) or ELISA (Fig. 22c). MPTP administration elevated levels of phosphorylated MKK4 in the substantia nigra by up to 5 fold over control levels (Fig. 22b). Peak elevations occurred 4 hrs after administration ofMPTP and coincided with peak CNS levels of MPP^+.

[3] = tested on: JNK; test: JNK activity immunoprecipitated from THP-1 cells; type: cell-based; conditions: Homo sapiens, read-out: THP-1 Cells JNK % inh. 500 nM
Description: Assays for JNK activity were performed after immunoprecipitating the JNK protein from an extract of lysed THP-1 cells. Pelleted THP-1 cells were lysed on ice for 15 min in 500 µl of Frac buffer (10 mM Tris-Hcl, pH 7.5,50 mM NaCl, 30 µM sodium pyrophosphate, 1 mg/ml BSA, 1% Triton-X-100). The extract was centrifuged for 10 min at 14K and 5 µl of JNK antibody (Santa Cruz) was added to the supernatant. The extract was rotated for 60 min at 4°C, 75 µl of washed protein A Sepharose (20% w/v in Frac) added and the extract rotated another 30 min to bind the antibody complex to the protein A Sepharose. The protein A Sepharose was washed twice with Frac buffer, once with 20 mM Hepes, pH 7.6, 20 mM MgCl2, 2 mM DTT, then incubated for 15 min at 30° C in 30 µl of kinase buffer (20 mM hepes, 20 mM MgCl2, 2 MM DTT, 1 µg recombinant c-jun, and 2 µM ATP-γ-^32P, 2 µCi. The reaction was terminated by the addition of 10 µl of 4X SDS gel loading buffer, heated for 3 min at 80° C, and the proteins were analyzed on a 10% SDS gel. The gel was dried, exposed to a Phosphorimager plate, and the radioactive bands were analyzed on a Phosphorimager.

[4] = biological target: T1, MLK-3 (Homo sapiens, UniProt Q16584); test: JNK activity (immunoprecipitation/kinase assay) in Cos7 cells overexpressing MLK-3 and HA-JNK1; type: cell-based
T1 construct: A full length cDNA of human MLK-3, MLK-2, or mouse DLK; expressed in transfected cells; host or cells: Cos7
Description: Cos7 cells were plated at 80% confluency and transfected with 2 ug each of cDNA constructs using lipofectamine as recommended by the provider (Gibco BRL, Gaithersburg, MD). A full length cDNA of human MLK-3, MLK-2, or mouse DLK or a partial human MLK-1 as described above, and a full length Hemagluttinin A-tagged human JNK1, kindly provided by J. Silvio Gutkind (NIH, Bethesda, MD), were subcloned into the pcDNA3 vector (Invitrogen, San Diego, CA). […] JNK activity from the lysate was assayed by an immunoprecipitation/kinase assay as described below.
Lysate from Cos 7 cells was measured for protein concentration using the Micro BCA kit from Pierce (Rockford, IL) and equal amounts of protein were immunoprecipitated with the HA antibody for 1 hr at 4°C. Immunoprecipitates were pelleted by centrifugation in a microfuge centrifuge for 20 sec, resuspended in Triton buffer, washed by centrifugation 2 more times, followed by a final wash in Kinase buffer (20 mM Hepes pH 7.4,20 mM MgCl2, 2 mM dithiothreitol, 0.1 mM sodium vanadate). The immunoprecipitate was resuspended in kinase buffer containing 1 µM ATP and 5 µCi [γ-^32P]ATP and substrate (1 µg/sample of AP-1 ) and incubated for 15 min at 30°C. […] Samples were heated to 80°C for 5 min and loaded onto 10% SDS-polyacrylamide gels. Proteins were separated by electrophoresis. The gel was dried and quantitation of radioactivity in the AP-1 substrate was performed on a Molecular Dynamics Phosphorimager (Sunnyvale, Ca.).
To determine whether inhibition of the JNK pathway regulated by these kinases correlated with neurotrophic compounds, we evaluated the effect of compounds on JNK activity in Cos7 cells overexpressing HA-JNK and MLK3. After a 48 hr transfection period, the cells were incubated with compounds at 500 nM for 2hr followed by cellular lysis. Lysate was immunoprecipitated and kinase activity measured as previously described. […]

[5] = biological target: T2, DLK (Mus musculus, UniProt Q60700); test: JNK activity (immunoprecipitation/kinase assay) in Cos7 cells overexpressing DLK and HA-JNK1; type: cell-based; conditions: COS-7, 500 nM for 2 hr; replicate values in one cell; read-out: Cos-7 Cells DLK % JNK Inhib. @ 500nM
T2 construct: A full length cDNA of human MLK-3, MLK-2, or mouse DLK; expressed in transfected cells; host or cells: Cos7
T2 sequence (Q60700 1-888): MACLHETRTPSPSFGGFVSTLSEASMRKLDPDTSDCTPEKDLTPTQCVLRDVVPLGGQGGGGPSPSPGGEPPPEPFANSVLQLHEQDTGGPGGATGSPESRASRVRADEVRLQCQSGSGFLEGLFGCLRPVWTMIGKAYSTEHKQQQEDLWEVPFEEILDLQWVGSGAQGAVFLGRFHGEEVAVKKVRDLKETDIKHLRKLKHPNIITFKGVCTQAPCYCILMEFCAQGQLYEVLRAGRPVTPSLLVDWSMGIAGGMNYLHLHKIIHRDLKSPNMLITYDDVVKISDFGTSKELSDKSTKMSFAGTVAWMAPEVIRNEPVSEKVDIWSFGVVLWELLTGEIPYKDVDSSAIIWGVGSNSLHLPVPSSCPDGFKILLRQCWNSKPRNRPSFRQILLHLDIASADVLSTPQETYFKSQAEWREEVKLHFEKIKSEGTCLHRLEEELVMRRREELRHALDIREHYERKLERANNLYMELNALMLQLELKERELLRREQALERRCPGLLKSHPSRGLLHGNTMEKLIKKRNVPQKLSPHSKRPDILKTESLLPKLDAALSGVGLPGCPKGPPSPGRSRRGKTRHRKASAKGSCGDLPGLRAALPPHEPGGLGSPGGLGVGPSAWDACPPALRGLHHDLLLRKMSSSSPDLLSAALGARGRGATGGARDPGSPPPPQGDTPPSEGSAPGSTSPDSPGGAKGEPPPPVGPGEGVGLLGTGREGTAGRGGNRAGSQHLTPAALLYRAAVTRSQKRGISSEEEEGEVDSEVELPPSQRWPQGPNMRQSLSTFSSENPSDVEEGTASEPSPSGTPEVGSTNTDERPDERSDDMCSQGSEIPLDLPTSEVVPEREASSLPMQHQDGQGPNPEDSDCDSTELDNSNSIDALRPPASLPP
Description: Cos7 cells were plated at 80% confluency and transfected with 2 ug each of cDNA constructs using lipofectamine as recommended by the provider (Gibco BRL, Gaithersburg, MD). A full length cDNA of human MLK-3, MLK-2, or mouse DLK or a partial human MLK-1 as described above, and a full length Hemagluttinin A-tagged human JNK1, kindly provided by J. Silvio Gutkind (NIH, Bethesda, MD), were subcloned into the pcDNA3 vector (Invitrogen, San Diego, CA). After a 48 hr transfection, the cells were treated with 0.025% DMSO or 500 nM of the indicated compounds for 2 hr followed by lysis in 0.4 ml Triton buffer (1% Triton X-100, 50 mM sodium chloride, 10 mM Tris (pH 7.6), 0.1 % bovine serum albumin, 30 uM sodium pyrophosphate, 50 mM sodium fluoride, 20 ug/ml aprotinin, 1 mM phenylmethylsulfonylfluoride, 1 mM sodium vanadate). JNK activity from the lysate was assayed by an immunoprecipitation/kinase assay as described below.
Lysate from Cos 7 cells was measured for protein concentration using the Micro BCA kit from Pierce (Rockford, IL) and equal amounts of protein were immunoprecipitated with the HA antibody for 1 hr at 4°C. […] The gel was dried and quantitation of radioactivity in the AP-1 substrate was performed on a Molecular Dynamics Phosphorimager (Sunnyvale, Ca.). […]

[6] = COS-7, 500 nM for 2hr, control is JNK activity in the presence of DMSO, read-out: % Inhibition of JNK Activity (average) MLK3 in Cos7 cells
[7] = COS-7, read-out: Overexpressed MLK3 in Cos 7 Cells JNK % inh. 500 nM

T1 sequence (Q16584 whole entry): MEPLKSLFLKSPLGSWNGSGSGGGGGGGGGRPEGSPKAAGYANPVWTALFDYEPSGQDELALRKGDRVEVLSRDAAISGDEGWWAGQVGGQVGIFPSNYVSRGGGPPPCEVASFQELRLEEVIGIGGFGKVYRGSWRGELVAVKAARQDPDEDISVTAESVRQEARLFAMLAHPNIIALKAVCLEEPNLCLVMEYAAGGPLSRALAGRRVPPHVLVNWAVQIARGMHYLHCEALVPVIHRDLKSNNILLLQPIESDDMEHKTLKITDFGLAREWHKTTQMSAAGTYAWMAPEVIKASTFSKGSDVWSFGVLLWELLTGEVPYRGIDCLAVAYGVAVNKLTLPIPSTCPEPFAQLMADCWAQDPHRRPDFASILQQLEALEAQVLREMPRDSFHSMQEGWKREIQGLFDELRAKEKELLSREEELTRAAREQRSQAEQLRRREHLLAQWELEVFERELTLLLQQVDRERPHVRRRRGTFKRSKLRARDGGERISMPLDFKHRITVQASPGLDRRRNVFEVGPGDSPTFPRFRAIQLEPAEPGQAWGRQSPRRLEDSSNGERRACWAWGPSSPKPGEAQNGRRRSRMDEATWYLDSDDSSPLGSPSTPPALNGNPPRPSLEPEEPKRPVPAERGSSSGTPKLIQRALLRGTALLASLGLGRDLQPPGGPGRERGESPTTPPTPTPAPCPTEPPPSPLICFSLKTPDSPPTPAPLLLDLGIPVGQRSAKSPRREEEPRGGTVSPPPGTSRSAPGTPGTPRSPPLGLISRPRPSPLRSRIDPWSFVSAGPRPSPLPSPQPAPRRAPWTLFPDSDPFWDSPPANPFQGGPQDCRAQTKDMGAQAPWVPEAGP

| Structure (SMILES) | inhibition at 0.5 µM [3] | IC50 [1] | inhibition at 0.5 µM [4, 6] | inhibition at 0.5 µM [4, 7] | also measured |
| --- | --- | --- | --- | --- | --- |
| Cc1c2oc3c(C)ccc(C(=O)N[C@@H]4C(=O)N[C@H](C(C)C)C(=O)N5CCC[C@H]5C(=O)N(C)CC(=O)N(C)[C@@H](C(C)C)C(=O)O[C@@H]4C)c3nc-2c(C(=O)N[C@@H]2C(=O)N[C@H](C(C)C)C(=O)N3CCC[C@H]3C(=O)N(C)CC(=O)N(C)[C@@H](C(C)C)C(=O)O[C@@H]2C)c(N)c1=O [Actinomycin D, reference compound] (I: T[dV]P[Sar][NMeV] / II: T[dV]P[Sar][NMeV]; ester I:1-I:C, II:1-II:C; linker I:N-II:N via Actinocin(9to1)) | – | – | – | – | TNF-α in the medium [1]: no TNF-α was found |
| C#CCN(C)[C@H](C)Cc1ccccc1 [Compound 1-deprenyl, 1-deprenyl, reference compound] | – | – | – | – | MPTP-mediated MKK4 phosphorylation [2]: attenuated |
| CCNC(=O)Nc1ccc2c(c1)c1c3c(c4c5cc(CCc6ccccn6)ccc5n5c4c1n2C1CC(O)(C(=O)OC)C5(C)O1)CNC3=O (centres unmarked) [III-1] | 93.5% | 49.5 nM | 84% | 83.8% | – |
| CCOCOCc1ccc2c(c1)c1c3c(c4c5cc(COCOCC)ccc5n5c4c1n2C1CC(O)(C(=O)OC)C5(C)O1)CNC3=O (centres unmarked) [III-2] | – | – | 96% | – | – |
| CCCCCOC(=O)C1(O)CC2OC1(C)n1c3ccccc3c3c4c(c5c6ccccc6n2c5c31)C(=O)NC4 (centres unmarked) [III-4] | 81% | 462 nM | 66% | 66% | – |
| COC(=O)C1(O)CC2OC1(C)n1c3ccccc3c3c4c(c5c6ccccc6n2c5c31)C(=O)NC4 (centres unmarked) [III-9] | – | – | 98.5% | – | – |
| COC(=O)C1(O)CC2OC1(C)n1c3ccc(CCSC)cc3c3c4c(c5c6cc(CCSC)ccc6n2c5c31)C(=O)NC4 (centres unmarked) [III-10] | 48% | 4300 nM | 78% | 78% | – |
| COC(=O)C1(OC)CC2OC1(C)n1c3ccccc3c3c4c(c5c6ccccc6n2c5c31)C(=O)NC4 (centres unmarked) [III-11] | 51% | 686 nM | 92.5% | – | inhibition at 0.5 µM ([4]; COS-7, 500 nM, read-out: Overexpressed MLK3 in Cos 7 Cells JNK % inh. 500 nM): 92.5% |
| COC(=O)C1(O)CC2OC1(C)n1c3ccccc3c3c4c(c5c6ccccc6n2c5c31)C(=O)NC4 (centres unmarked) [III^1] | – | – | – | – | inhibition at 0.5 µM [5]: 63%; inhibition at 0.5 µM ([4]; COS-7, 500 nM for 2 hr, replicate values in one cell, read-out: Cos-7 Cells MLK-3 % JNK Inhib. @ 500nM): 99% |
| C[C@@H]1C[C@@H]([C@H](O)CC2CC(=O)NC(=O)C2)C(=O)[C@@H](C)C1 [cycloheximide, reference compound] | – | – | – | – | TNF-α in the medium [1]: no TNF-α was found |
